In patent publication US9011910B2, “Implantable tizanidine compositions and methods of treatment thereof” (Endo Pharmaceuticals Solutions Inc., priority 2011, dated 2015):
Counter-ions that a name gives are not always drawn. Like-named read-outs stand apart in the source and are kept apart here.

How the values were obtained:
[1] = 2% stearic acid; for in vitro elution rate: nine pellets, 100 mL PBS at 37° C.; for release rate: about 250 mg API, up to 36 weeks
From the text: In one embodiment of the present invention, tizanidine is delivered to the subject at a target range of about 100 micrograms/day to about 10,000 micrograms/day. For example, tizanidine is delivered to the subject at a target range of about 100 to about 5,000 micrograms/day, or about 200 to about 4,000 micrograms per day, or about 300 to about 3,000 micrograms per day or about 400 to about 2,000 micrograms per day. The testing method set forth in the examples to determine the elution rates for compositions comprising tizanidine includes placing the implants in an elution bath consisting of PBS or 0.9% saline at 37° C. Weekly exchanges of the elution media are then analyzed by HPLC for the durations given.
The implants were sterilized by gamma irradiation and placed in an elution bath consisting of 100 mL PBS at 37° C.
A discrete solid dosage form was prepared as follows. The drug implants were manufactured using PEBAX® 2533 and PEBAX® 3533, as the tubing material and tizanidine free base as the API. […] A total of about 250 mg tizanidine free base were loaded into the implant with 10% croscarmellose and 2% stearic acid. The implant were sterilized by gamma irradiation and placed in an elution batch consisting of 200 mL 0.9% saline at 37° C.
A discrete solid dosage form was prepared as follows. Various polyurethanes were used as the tubing material (i.e., TECOFLEX® EG-80A, TECOFLEX® EG-85A, TECOFLEX® EG-93A, TECOPHILIC® HP-60D-05, and TECOPHILIC® HP-60D-10 polyurethanes) and tizanidine hydrochloride as the API. […] A total of about 380 mg tizanidine hydrochloride were loaded into the implant with 10% croscarmellose and 2% stearic acid. The implants were sterilized by gamma irradiation and placed in an elution batch consisting of 200 mL PBS at 37° C. Weekly exchanges of the elution media were analyzed by HPLC over 5 weeks.
The drug implants were manufactured as described in Example 3, except tizanidine free base was used as the API instead of tizanidine HCl. […] A total of about 250 mg tizanidine free base were loaded into the implants with 10% croscarmellose and 2% stearic acid. The implants were sterilized by gamma irradiation and placed in an elution batch consisting of 200 mL PBS at 37° C. Weekly exchanges of the elution media were analyzed by HPLC for up to 36 weeks.

[2] = oral dosage form, approximate; cited from earlier work

drug release from the implants (elution rate in vitro) ([1]; all polyurethanes investigated (TECOFLEX EG-80A, EG-85A, EG-93A, TECOPHILIC HP-60D-05, HP-60D-10), about 380 mg API, 10% croscarmellose, 200 mL PBS at 37° C., 5 weeks)	in vitro elution rate ([1]; TECOFLEX EG-80A implant, 5% croscarmellose, 405 mg API, week 2)	in vitro elution rate ([1]; TECOFLEX EG-80A implant, 5% croscarmellose, 405 mg API, week 27)	in vitro elution rate ([1]; TECOFLEX EG-80A implant, 15% croscarmellose, 360 mg API, week 2)	in vitro elution rate ([1]; TECOFLEX EG-80A implant, 15% croscarmellose, 360 mg API, week 27)	release rate ([1]; TECOFLEX EG-80A implant, 10% croscarmellose, 200 mL PBS at 37° C.)	release rate ([1]; TECOFLEX EG-93A implant, 10% croscarmellose, 200 mL PBS at 37° C.)	Structure (SMILES)	oral bioavailability [2]
below 100 μg per day							Clc1ccc2nsnc2c1NC1=NCCN1 [tizanidine HCl, tizanidine hydrochloride]	20-40%
	about 1,200 μg/day	about 900 μg/day	about 1,400 μg/day	about 1,250 μg/day	about 900 μg per day	about 100 μg per day	Clc1ccc2nsnc2c1NC1=NCCN1 [tizanidine free base, 5-chloro-N-(4,5-dihydro-1H-imidazol-2-yl)benzo[c][1,2,5]thiadiazol-4-amine]	
